# From patent US8435976B2, “4-substituted pyridin-3-yl-carboxamide compounds and methods of use” (F. Hoffmann-La Roche, priority 2009, dated 2013)
# Tests used:
# [1] = tested on: multiple myeloma cell line MM.1S; experiment: MM.1S 3 day proliferation assay, single agents and combinations (Cell-Titer Glo); assay type: cell-based; settings: FIG. 1
# Protocol: The in vitro potency of the combinations of formula I compounds with chemotherapeutic agents was measured by the cell proliferation assay of Example 11 and the results are compiled in Example iii. The CellTiter-Glo® Luminescent Cell Viability Assay (commercially available from Promega Corp., Madison, Wis.) is a homogeneous assay method based on the recombinant expression of Coleoptera luciferase (U.S. Pat. No. 5,583,024; U.S. Pat. No. 5,674,713; U.S. Pat. No. 5,700,670) and determines the number of viable cells in culture based on quantitation of the ATP present, an indicator of metabolically active cells (Crouch et al (1993) J. Immunol. Meth. 160:81-88; U.S. Pat. No. 6,602,677). The CellTiter-Glo® Assay was conducted in 96 or 384 well format, making it amenable to automated high-throughput screening (HTS) (Cree et al (1995) AntiCancer Drugs 6:398-404). The homogeneous assay procedure involves adding the single reagent (CellTiter-Glo® Reagent) directly to cells cultured in serum-supplemented medium. Cell washing, removal of medium and multiple pipetting steps are not required. The system detects as few as 15 cells/well in a 384-well format in 10 minutes after adding reagent and mixing.
# The homogeneous “add-mix-measure” format results in cell lysis and generation of a luminescent signal proportional to the amount of ATP present. […] Viable cells are reflected in relative luminescence units (RLU). […] Data can be recorded by luminometer or CCD camera imaging device. The luminescence output is presented as relative light units (RLU), measured over time.
# The combination index (CI) score is calculated by the Chou and Talalay method (Chou, T. and Talalay, P. (1984) Adv. Enzyme Regul. 22:27-55). […] The strength of synergy is assessed according to Chou and Talalay. […]
# The in vitro cell survival and proliferation assay (Cell-Titer Glo, Promega) measured viable cells over varying inhibitor concentrations (10^−3 to 10 μMolar, Relative Units, wherein a Relative Unit equals 0.3 micromolar for Compound 3, 0.3 micromolar for Formula A, and 0.1 micromolar for Formula B). […]
# [2] = tested on: bone marrow aspirate samples from multiple myeloma patients; experiment: Primary cancer cell isolates from bone marrow aspirates, apoptosis; assay type: cell-based, human; settings: 0.3 or 1.0 micromolar; two of four cases
# Protocol: Shown in FIG. 2 are a summary of Combination Index values for Compound 3 in combination with different agents. The values shown were calculated at the ED50 of the dose response curves which were similar in nature to those exemplified in FIG. 1. Each dot in the plot represents the test results obtained with a different multiple myeloma cell line with a different combination of test agents, including Compound 3 plus a second agent as labeled on the abscissa. The horizontal line on the plot itself indicates the mean of all CI values for a given test agent. Combinations of Compound 3 with clinical standard of care chemotherapeutic agents including dexamethasone, lenalidomide, bortezomib, and melphalan produced variable results wherein CI values between about 0.1 and about 1 were obtained, with means generally greater than about 0.5. Compared to these clinically active agents, unexpectedly uniform and unexpectedly potent combination test results were obtained for Compound 3 in combination with Formula A, in which the majority of calculated CI values were less than about 0.2 and the mean across all cancer cell lines tested was about 0.2. In addition to these findings, bone marrow aspirate samples from multiple myeloma patients […] to test Formula A and Compound 3 singly and in combination on these primary cancer cell isolates.
# [3] = tested on: prostate cancer cell line PC3; experiment: Cell Titer Glo proliferation and survival assay, PC3; assay type: cell-based; settings: PC3, FIG. 5
# Text: The results obtained here are representative of a subset of prostate cell lines tested.
# [4] = tested on: RPMI 8226.x1 multiple myeloma xenografts; experiment: RPMI 8226.x1 multiple myeloma xenograft; assay type: in vivo, SCID Beige mice; settings: Formula A 75 mg/kg po qd x21, day 27
# Protocol: (§1) The efficacy of the combinations of the invention may be measured in vivo by implanting allografts or xenografts of cancer cells in rodents and treating the tumor-bearing animals with the combinations. Variable results are to be expected depending on the cell line, the presence or absence of certain mutations in the tumor cells, the sequence of administration of a formula I compound and chemotherapeutic agent, dosing regimen, and other factors. Subject mice were treated with drug(s) or control (Vehicle) and monitored over several weeks or more to measure the time to tumor doubling, log cell kill, and tumor inhibition.
# Dosing of all cohorts commenced on Day 0 when the mean tumor volume of all cohorts was between about 100 to 200 cubic millimeters.
# [5] = tested on: syngeneic A20 lymphoma tumors; experiment: Syngeneic A20 lymphoma tumor model; assay type: in vivo, Balb/c mice; settings: Compound 3 25 and 50 mg/kg or Formula A 75 mg/kg po qd x21
# Protocol: The efficacy of the combinations of the invention may be measured in vivo by implanting allografts or xenografts of cancer cells in rodents and treating the tumor-bearing animals with the combinations. […] Subject mice were treated with drug(s) or control (Vehicle) and monitored over several weeks or more to measure the time to tumor doubling, log cell kill, and tumor inhibition.
# Dosing of all cohorts commenced on Day 0 when the mean tumor volume of all cohorts was between […]. […] At the conclusion of this study, femurs were collected and histological analysis of the bone marrow was conducted, and peripheral blood was collected for determination of blood cell counts.
# [6] = tested on: MM1.s multiple myeloma xenografts; experiment: MM1.s multiple myeloma xenograft; assay type: in vivo, SCID mice; settings: Formula A 75 mg/kg po qd, day 18; compared with Compound 3 50 mg/kg
# Protocol: as §1
# Dosing of all cohorts commenced on Day 0 when the mean tumor volume of all cohorts was between about 200 to 300 cubic millimeters. […] Formula A was tested at as a single agent at a single dose level of 75 mg/kg for which a lesser TGI was obtained at day 18.
# BaF3 PIM1 cells = BaF3 PIM1 cells (Homo sapiens, UniProt P11309); experiment: BaF3 PIM1 cell proliferation (Cell Titer Glo); assay type: cell-based; settings: Table 3; read-out: BaF3-Pim1
# BaF3 PIM2 cells = BaF3 PIM2 cells (Homo sapiens, UniProt Q9P1W9); experiment: BaF3 PIM2 cell proliferation (Cell Titer Glo); assay type: cell-based; settings: Table 3; read-out: BaF3-Pim2
# Summary of the method: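 BaF3 cells stably transfected with PIM2 were cultured in RPMI with 10% FBS, 2 mM L-Glutamine and 250 μg/mL G418, then plated at 5 k/well in 45 μL/well of a 384-well plate. Test compound was added at 5 μL/well, cells incubated overnight, and viability measured by luminescence after 30 minutes with Cell Titer Glo (50 μL/well).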
# MM1.S cells = experiment: MM1.S cell proliferation, 72 hours (Cell Titer Glo); assay type: cell-based; settings: Homo sapiens, Table 3, read-out: MM1.s
# Summary of the method: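 BaF3 parental cells (2 k/well, with 2 ng/mL mIL-3) were treated overnight, and MM1.S cells (10 k/well) were treated for 72 h at 37 °C. Viability was read by CellTiter-Glo luminescence. IC50/EC50 values were calculated from the luminescence data.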
# BaF3 parental cells = experiment: BaF3 parental cell proliferation (Cell Titer Glo); assay type: cell-based; settings: Mus musculus, Table 3
# Protocol: BaF3 parental line was obtained from the DSMZ repository. BaF3 lines transfected with PIM1 or PIM2 were generated. Mouse IL-3 was purchased from R&D Systems. G418 was purchased from Clontech. Media for BaF3 parental line contained RPMI, 10% FBS, 2 mM L-Glutamine, 2 ng/mL mIL-3. Media for BaF3 PIM1 & 2 lines contained RPMI, 10% FBS, 2 mM L-Glutamine, […]. Media for MM1.S line contained RPMI, 10% FBS, 2 mM L-Glutamine.
# BaF3 parental cells, BaF3 PIM1 cells, BaF3 PIM2 cells, and MM1.S cells were seeded at 2 k/well, 5 k/well, 5 k/well, and 10 k/well respectively, in a 384-well plate, at 45 μL/well. Test compound was added at 5 μL/well. BaF3 cells (parental and transfected) were incubated overnight, while MM1.S cells were incubated for 72 hours at 37° C., 5% CO2. Cell Titer Glo Reagent (Promega) was added at 50 μL/well, the plates were incubated for 30 minutes, and their luminescence read on an HT Analyst. IC50/EC50 values for the test compound were calculated.
# EOL-1 = EOL-1 cell assay; assay type: cell-based; settings: Homo sapiens, EOL1; Table 3
# [7] = tested on: multiple myeloma cell line KMS11; experiment: Cell Titer Glo proliferation and survival assay, KMS11 and other multiple myeloma cell lines; assay type: cell-based; settings: Homo sapiens, KMS-11; single agent; ten multiple myeloma cell lines tested; read-out: IC50 against myeloma cell lines, single agent
# Text: The results obtained here are representative of a total of ten multiple myeloma cell lines tested.
# Chain of BaF3 PIM2 cells (Q9P1W9 whole entry, change not shown): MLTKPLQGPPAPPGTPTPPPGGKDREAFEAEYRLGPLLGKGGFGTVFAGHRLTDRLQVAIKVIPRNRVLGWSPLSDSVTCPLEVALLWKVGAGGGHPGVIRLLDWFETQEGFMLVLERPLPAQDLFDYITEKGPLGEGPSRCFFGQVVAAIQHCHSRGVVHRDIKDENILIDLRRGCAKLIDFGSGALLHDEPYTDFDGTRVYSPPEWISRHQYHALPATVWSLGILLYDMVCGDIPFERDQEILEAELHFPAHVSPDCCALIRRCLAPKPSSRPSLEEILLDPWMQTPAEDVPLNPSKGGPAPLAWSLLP
# Chain of BaF3 PIM1 cells (P11309 whole entry, change not shown): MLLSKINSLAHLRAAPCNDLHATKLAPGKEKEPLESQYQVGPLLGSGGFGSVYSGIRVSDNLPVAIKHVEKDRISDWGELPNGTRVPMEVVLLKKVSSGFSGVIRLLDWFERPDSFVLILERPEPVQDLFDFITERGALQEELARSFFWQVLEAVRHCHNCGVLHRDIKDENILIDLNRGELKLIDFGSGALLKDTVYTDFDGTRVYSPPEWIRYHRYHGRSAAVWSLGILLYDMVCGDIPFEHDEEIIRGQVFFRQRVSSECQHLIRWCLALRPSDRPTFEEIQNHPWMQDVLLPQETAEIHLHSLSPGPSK
Compound,"lowest level reached by dose-response curve, of control value [1]",activity on primary cancer cell isolates [2],IC50 [3] [nM],tumor growth inhibition (TGI) [4] [%],"effect on tumor growth, single agents [5]","tumor growth inhibition (TGI), in words [6]",GI50 (BaF3 PIM1 cells) [nM],GI50 (BaF3 PIM2 cells) [nM],EC50 (MM1.S cells) [nM],IC50 (BaF3 parental cells) [nM],IC50 (EOL-1) [nM],IC50 [7] [nM]
"Cc1c(CN2CCN(C(=O)[C@H](C)O)CC2)sc2c(N3CCOCC3)nc(-c3cnc(N)nc3)nc12 [Formula B, (S)-1-(4-((2-(2-aminopyrimidin-5-yl)-7-methyl-4-morpholinothieno[3,2-d]pyrimidin-6-yl)methyl)piperazin-1-yl)-2-hydroxypropan-1-one]",about 0%,–,–,–,–,–,–,–,–,–,–,–
"CS(=O)(=O)N1CCN(Cc2cc3nc(-c4cccc5[nH]ncc45)nc(N4CCOCC4)c3s2)CC1 [Formula A, 4-(2-(1H-indazol-4-yl)-6-((4-(methylsulfonyl)piperazin-1-yl)methyl)thieno[3,2-d]pyrimidin-4-yl)morpholine, reference compound]",about 0%,only limited single agent activity,~300,40,no significant effect on tumor growth,lesser TGI,–,–,–,–,–,–
"O=C(Nc1c[nH]c2ncccc12)c1cnn2ccc(NCCc3ccccc3)nc12 [Compound PIMi, 5-(phenethylamino)-N-(1H-pyrrolo[2,3-b]pyridine-3-yl)pyrazolo[1,5-a]pyrimidine-3-carboxamide, reference compound]",–,–,–,–,–,–,400,> 20000,> 20000,12000,400,> 5000
